The experiment deals with Benzodiazepine receptors (BDZ-Rs). The experiment can be described thus: Inhibition of 3H-flunitrazepam (3H-FNZ) binding to washed rat cerebral cortical membranes. The method, then:
Adult male Wistar rats weighing 250g were used for biochemical experiments.
Membrane preparations were carried out according to Medina et al. (1990). Briefly, brains were rapidly dissected out on ice and the different structures were homogenized in 10 volumes of 0.32 M sucrose and centrifuged at 900 x g for 10 min. The resulting supernatant was centrifuged at 100,000 x g for 30 min and the pellet washed twice in 25mM Tris HCl buffer pH 7.4 at 100,000 x g for 30 min,and stored at-20°C until used.
Binding affinities to BDZ-Rs were determined by the ability of the compounds to inhibit Hoffman-La Roche ^3H-flunitrazepam (^3H-FNZ) binding to extensively washed rat cerebal cortical membranes following the method as described by Levi de Stein, M. et al., Mol. Brain Res (1989),5, pp 9-15.
In brief, for each assay, triplicate samples of the membranes, containing 0.2 to 0.4 mg protein were suspended in a final volume of 1 ml of 0.25 mM Tris-HCl buffer, pH 7.3.
The incubation was carried out at 4°C for 60 min with 0.5 nM ^3H-FNZ. To study the binding saturation, a range of 0.3 to 10 nM ^3H-FNZ was used. Non-specific binding was determined in parallel incubations in the presence of 3µM FNZ, and represented 5-15% of total. The assays were terminated by filtration under vacuum through Whatman GF/A glass-fiber filters, and three washes with 3mL each of incubation medium. Filters were dried and counted after the addition of 5 mL of 2,5-diphenyloxazole/xylene as scintillation fluid.
The competition curves were analyzed using Graph-Pad Prism software.
Figures 1-5 show representative displacement curves of [^3H] flunitrazepam (0.5 nM) binding by different flavones to washed crude synaptosomal membranes from rat cerebral cortex.

Setting [1] is: Rat Cerebral Cortex membranes, 0.5 nM 3H-FNZ, means of 3-5 independent determinations, read-out: Ki^b.
Setting [2] is: mean ± SEM from displacement curves of [3H] flunitrazepam binding to rat synaptosomal membranes, read-out: Ki.
Setting [3] is: single representative displacement curve (Figures 1-5), [3H] flunitrazepam 0.5 nM, washed crude synaptosomal membranes from rat cerebral cortex, read-out: Ki.

SMILES strings stand for the structures. Where two headings read alike, the source gives them in different places.

For orientation: Ki means a measure of affinity in units of concentration, obtained from inhibition or displacement. Consider `O=c1cc(-c2ccccc2)oc2ccc([N+](=O)[O-])cc12` [Compound A1, 6-nitroflavone], for which the Ki under setting [1] amounted to 275 nM, the inhibitory constant (Ki) under setting [2] was determined as 275 ± 41.1 nM and the Ki under setting [3] came out at 315 nM.

With `O=c1cc(-c2cccc(Cl)c2)oc2ccccc12` [Compound A2, 3'-chloroflavone], the inhibition constant Ki runs as follows: under setting [1], 614 nM; under setting [2], 614 ± 32.7 nM; under setting [3], 665 nM.

Turning to `O=c1cc(-c2cccc(Br)c2)oc2ccccc12` [Compound A3, 3'-bromoflavone], the inhibitory constant (Ki) amounted to 413 nM under setting [1], 414 ± 46 nM under setting [2] and 427 nM under setting [3].

As to `O=c1cc(-c2cccc(Br)c2)oc2ccc(Br)cc12` [Compound A4, 6,3'-dibromoflavone], the inhibitory constant (Ki) reads like this: under setting [1], 19 nM; under setting [2], 18.6 ± 2.18 nM; under setting [3], 22.7 nM.

Turning to `O=c1cc(-c2cccc(Br)c2)oc2ccc([N+](=O)[O-])cc12` [Compound A5, 6-nitro-3'-bromoflavone], the Ki was determined as 25 nM under setting [1], 25.2 ± 2.46 nM under setting [2] and 21.8 nM under setting [3].

For `O=c1cc(-c2ccccc2)oc2ccccc12` [Flavone 6, Flavone, reference compound], the inhibition constant Ki under setting [1] stood at 1000 nM.

Source of the values: EP0973516B1, “USE OF HALO AND/OR NITRO-SUBSTITUTED FLAVONOIDS AS ANXYOLITICS” (University of Strathclyde, priority 1997, dated 1998).
